Data on 42 compounds can be found in patent US11390631B1, “Benzodiazepine derivatives as RSV inhibitors” (priority 2015, dated 2022).

Data set [1] has as its system Human RSV-A (“Long” strain). The data set is described as follows: RSV-A assay: inhibition of cytopathic effect in Hep-2 cells, ATPlite readout. Format: cell-based, Human respiratory syncytial virus (HRSV). The following applies: human respiratory syncytial virus, HEp-2, 120 h, read-out: Human RSV-A (“Long” strain) EC50. The gist of the method: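 Cytopathic-effect protection was read as ATP content (ATPlite luminescence) after a 5-day incubation. Setup: Hep-2 cells at 8,000 per well, RSV-A Long at MOI 0.1, 2-fold serial compound dilutions in duplicate. Cytotoxicity (CC50) was measured on an identical uninfected plate run in parallel.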
A general note: Cytopathic effects are the visible damage that an infection or toxin causes in cultured cells.

Data set [2] in a line: Cytotoxicity on parallel plate without virus, ATPlite readout. The note with it: human, Hep-2 cells (no virus), Hep-2 cells without virus, 5-day incubation. It counts as cell-based. The procedure:
Following extensive parameter testing, the final assay is run as follows: Hep-2 cells are seeded into the inner 60 wells of a 96-well plate at 8,000 cells per well in a volume of 50 μL using Growth Media (DMEM without phenol red, 1% L-Glut, 1% Penn/Strep, 1% nonessential amino acids, 10% heat-inactivated FBS). 2-fold serial dilutions of control and test compounds are added to the wells in duplicate in a total volume of 25 μL. Viral stock is then added to the wells at a multiplicity of infection (MOI) of 0.1 in a volume of 25 μL, bringing the total volume of each well to 100 μL. The MOI is calculated using the PFU/mL, or TCID50 if unavailable. Each 96-well plate has a control column of 6 wells with cells and virus but no compound (negative control, max CPE), a column with cells but no compound or virus (positive control, minimum CPE), and a column with no cells or virus or compound (background plate/reagent control). The control wells with cells but no virus are given an additional 25 uL of growth media containing an equal quantity of sucrose as those wells receiving the viral stock in order to keep consistent in media and volume conditions. The outer wells of the plate are filled with 125 μL of moat media (DMEM, 1% Penn/Strep) to act as a thermal and evaporative moat around the test wells. Following a 5-day incubation period, the plates are read using ATPlite (50 uL added per well), which quantifies the amount of ATP (a measure of cell health) present in each well. Assay plates are read using the Envision luminometer. In parallel, cytotoxicity is examined on an additional 96-well plate treated in an identical manner, but substituting the 25 μL of viral stock for 25 μL of growth media. […] EC50 ranges are as follows: A<0.4 μM; B 0.4-0.8 μM; C>0.8 μM and CC50 ranges are as follows: A>50 μM; B 10-50 μM; C<10 μM.

Some results are limits rather than exact numbers.

As a reminder, the EC50 is the midpoint of the concentration-response curve. For orientation: CC50 means the concentration at which the toxic effect on the cells reaches its halfway point. On to `O=C1Nc2ccccc2C(c2ccccc2)=NC1Nc1nnc(-c2ccc3nc[nH]c3c2)o1` (stereo not drawn) [Example 41], for which the EC50 in data set [1] is greater than 800 nM. The same compound returned a cytotoxic concentration (CC50) at 5 days in data set [2] greater than 50000 nM.
In the case of `O=C1Nc2ccccc2C(c2ccccc2)=NC1Nc1nnc(-c2cc3cccnc3s2)o1` (stereo not drawn) [Example 43], the EC50 in data set [1] was greater than 800 nM. This compound displayed a CC50 at 5 days in data set [2] greater than 50000 nM.
Taken in the same sequence, the figures for `CN1CCc2nc(-c3nnc(NC4N=C(c5ccccc5)c5ccccc5NC4=O)o3)sc2C1` (stereo not drawn) [Example 44] were greater than 800 nM and greater than 50000 nM.
As to `O=C1Nc2ccccc2C(c2ccccc2)=NC1Nc1nnc(C2CCNCC2)o1` (stereo not drawn) [Example 45], in data set [1], the concentration for a half-maximal effect (EC50) is greater than 800 nM. For the same compound, the half-maximal cytotoxic concentration (CC50) at 5 days in data set [2] was greater than 50000 nM.
On the same counts, the results for `CN1CCC(c2nnc(NC3N=C(c4ccccc4)c4ccccc4NC3=O)o2)CC1` (stereo not drawn) [Example 46] are greater than 800 nM and greater than 50000 nM.
As for `CC(=O)N1CCC(c2nnc(NC3N=C(c4ccccc4)c4ccccc4NC3=O)o2)CC1` (stereo not drawn) [Example 47], in data set [1], the concentration for a half-maximal effect (EC50) was greater than 800 nM. The same compound came in with a CC50 at 5 days in data set [2] greater than 50000 nM.
On the same counts, the results for `O=C1Nc2ccccc2C(c2ccccc2)=NC1Nc1nnc([C@@H]2COCCN2)o1` (stereo partly drawn) [Example 48] are greater than 800 nM and greater than 50000 nM.
Taken in the same sequence, the figures for `O=C1Nc2ccccc2C(c2ccccc2)=NC1Nc1nnc([C@H]2COCCN2)o1` (stereo partly drawn) [Example 49] were greater than 800 nM and greater than 50000 nM.
Take `O=C1Nc2ccccc2C(c2ccccc2)=NC1Nc1nnc(-c2ccc(F)cc2F)o1` (stereo not drawn) [Example 50]: the EC50 in data set [1] was greater than 800 nM. Moreover, the CC50 at 5 days in data set [2] is greater than 50000 nM.
On the same counts, the results for `COc1ccc(-c2nnc(NC3N=C(c4ccccc4)c4ccccc4NC3=O)o2)nc1` (stereo not drawn) [Example 51] are 400 to 800 nM and greater than 50000 nM.
On the same counts, the results for `COc1cccc(-c2nnc(NC3N=C(c4ccccc4)c4ccccc4NC3=O)o2)n1` (stereo not drawn) [Example 52] are less than 400 nM and greater than 50000 nM.
Taken in the same sequence, the figures for `O=C1Nc2ccccc2C(c2ccccc2)=NC1Nc1nnc(-c2ccc(F)nc2)o1` (stereo not drawn) [Example 53] were 400 to 800 nM and greater than 50000 nM.
In the case of `COc1ccc(-c2nnc(NC3N=C(c4ccccc4)c4ccccc4NC3=O)o2)cn1` (stereo not drawn) [Example 54], the EC50 in data set [1] is less than 400 nM. This compound also returned a CC50 at 5 days in data set [2] greater than 50000 nM.
Taken in the same sequence, the figures for `O=C1Nc2ccccc2C(c2ccccc2)=NC1Nc1nnc(-c2ccnc(F)c2)o1` (stereo not drawn) [Example 55] were less than 400 nM and greater than 50000 nM.
Regarding `COc1ccnc(-c2nnc(NC3N=C(c4ccccc4)c4ccccc4NC3=O)o2)c1` (stereo not drawn) [Example 57], the EC50 in data set [1] is greater than 800 nM. This compound also came in with a CC50 at 5 days in data set [2] greater than 50000 nM.
`O=C1Nc2ccccc2C(c2ccccc2)=NC1Nc1nnc(-c2cnccn2)o1` (stereo not drawn) [Example 58]: the EC50 in data set [1] was greater than 800 nM. The compound further came in with a CC50 at 5 days in data set [2] greater than 50000 nM.
For `O=C1Nc2ccccc2C(c2ccccc2)=NC1Nc1nnc(-c2ncccn2)o1` (stereo not drawn) [Example 59], the EC50 in data set [1] is greater than 800 nM. In data set [2], this compound returned a CC50 at 5 days greater than 50000 nM.
On the same counts, the results for `O=C1Nc2ccccc2C(c2ccccc2)=NC1Nc1nnc(-c2cncnc2)o1` (stereo not drawn) [Example 60] are greater than 800 nM and greater than 50000 nM.
With `O=C1Nc2ccccc2C(c2ccccc2)=NC1Nc1nnc(-c2ccncc2)o1` (stereo not drawn) [Example 61], the EC50 in data set [1] lay within 400 to 800 nM. The compound further came in with a cytotoxic concentration (CC50) at 5 days in data set [2] greater than 50000 nM.
Taken in the same sequence, the figures for `O=C1Nc2ccccc2C(c2ccccc2)=NC1Nc1nnc(-c2cccnn2)o1` (stereo not drawn) [Example 62] were greater than 800 nM and greater than 50000 nM.
On the same counts, the results for `O=C1Nc2ccccc2C(c2ccccc2)=NC1Nc1nnc(-c2ccncn2)o1` (stereo not drawn) [Example 63] are greater than 800 nM and greater than 50000 nM.
On to `COCc1cccc(-c2nnc(NC3N=C(c4ccccc4)c4ccccc4NC3=O)o2)n1` (stereo not drawn) [Example 64], for which the half-maximal effective concentration (EC50) in data set [1] is greater than 800 nM. The compound also showed a CC50 at 5 days in data set [2] greater than 50000 nM.
Regarding `Cn1nccc1-c1nnc(NC2N=C(c3ccccc3)c3ccccc3NC2=O)o1` (stereo not drawn) [Example 65], in data set [1], the 50% effective concentration (EC50) is greater than 800 nM. The compound further came in with a 50% cytotoxic concentration (CC50) at 5 days in data set [2] greater than 50000 nM.
`Cn1cc(-c2nnc(NC3N=C(c4ccccc4)c4ccccc4NC3=O)o2)cn1` (stereo not drawn) [Example 66]: the EC50 in data set [1] fell in the range of 400 to 800 nM. Besides, in data set [2], the half-maximal cytotoxic concentration (CC50) at 5 days was greater than 50000 nM.
`Cn1ccnc1-c1nnc(NC2N=C(c3ccccc3)c3ccccc3NC2=O)o1` (stereo not drawn) [Example 67]: the EC50 in data set [1] was greater than 800 nM. Further, the half-maximal cytotoxic concentration (CC50) at 5 days in data set [2] was greater than 50000 nM.
Consider `Cn1cnc(-c2nnc(NC3N=C(c4ccccc4)c4ccccc4NC3=O)o2)c1` (stereo not drawn) [Example 68], for which the EC50 in data set [1] was greater than 800 nM. Besides, the CC50 at 5 days in data set [2] was greater than 50000 nM.
Taken in the same sequence, the figures for `O=C1Nc2ccccc2C(c2ccccc2)=NC1Nc1nnc(-c2nccs2)o1` (stereo not drawn) [Example 69] were greater than 800 nM and greater than 50000 nM.
On to `O=C1Nc2ccccc2C(c2ccccc2)=NC1Nc1nnc(-c2ncco2)o1` (stereo not drawn) [Example 70], for which the concentration giving a half-maximal response (EC50) in data set [1] was greater than 800 nM. In data set [2], the cytotoxic concentration (CC50) at 5 days is greater than 50000 nM.
On the same counts, the results for `Cc1ccc(-c2nnc(NC3N=C(c4ccccc4)c4ccccc4NC3=O)o2)o1` (stereo not drawn) [Example 71] are greater than 800 nM and greater than 50000 nM.
On the same counts, the results for `COCc1ccc(-c2nnc(NC3N=C(c4ccccc4)c4ccccc4NC3=O)o2)o1` (stereo not drawn) [Example 72] are greater than 800 nM and greater than 50000 nM.
On the same counts, the results for `CN(C)Cc1ccc(-c2nnc(NC3N=C(c4ccccc4)c4ccccc4NC3=O)o2)o1` (stereo not drawn) [Example 73] are greater than 800 nM and greater than 50000 nM.
In the case of `Cc1cc(-c2nnc(NC3N=C(c4ccccc4)c4ccccc4NC3=O)o2)on1` (stereo not drawn) [Example 74], the EC50 in data set [1] was greater than 800 nM. For the same compound, the CC50 at 5 days in data set [2] was greater than 50000 nM.
Taken in the same sequence, the figures for `O=C1Nc2ccccc2C(c2ccccc2)=NC1Nc1nnc(-c2cnco2)o1` (stereo not drawn) [Example 75] were greater than 800 nM and greater than 50000 nM.
Regarding `O=C1Nc2ccccc2C(c2ccccc2)=NC1Nc1nnc(-c2cncs2)o1` (stereo not drawn) [Example 76], the 50% effective concentration (EC50) in data set [1] was greater than 800 nM. Moreover, the CC50 at 5 days in data set [2] was greater than 50000 nM.
On to `O=C1Nc2ccccc2C(c2ccccc2)=NC1Nc1nnc(-c2cscn2)o1` (stereo not drawn) [Example 77], for which, in data set [1], the EC50 lay in the range of 400 to 800 nM. In addition, the CC50 at 5 days in data set [2] is greater than 50000 nM.
On the same counts, the results for `O=C1Nc2ccccc2C(c2ccccc2)=NC1Nc1nnco1` (stereo not drawn) [Example 79] are greater than 800 nM and greater than 50000 nM.
Turning to `O=C1Nc2ccccc2C(c2ccccc2)=NC1Nc1nnc(-c2ccc(F)cc2)s1` (stereo not drawn) [Example 80], in data set [1], the 50% effective concentration (EC50) is greater than 800 nM. The same compound returned a CC50 at 5 days in data set [2] greater than 50000 nM.
Taken in the same sequence, the figures for `O=C1Nc2ccccc2C(c2ccccc2)=NC1Nc1nnc(-c2ccccc2)s1` (stereo not drawn) [Example 81] were greater than 800 nM and greater than 50000 nM.
Taken in the same sequence, the figures for `N#Cc1ccc(-c2nnc(NC3N=C(c4ccccc4)c4ccccc4NC3=O)s2)cc1` (stereo not drawn) [Example 82] were 400 to 800 nM and greater than 50000 nM.
For the compound `O=C1Nc2ccccc2C(c2ccccc2)=NC1Nc1nnc(-c2ccncc2)s1` (stereo not drawn) [Example 83], in data set [1], the EC50 was greater than 800 nM. Further, in data set [2], the 50% cytotoxic concentration (CC50) at 5 days is greater than 50000 nM.
On the same counts, the results for `O=C1Nc2ccccc2C(c2ccccc2)=NC1Nc1ncc(-c2ccccc2)o1` (stereo not drawn) [Example 84] are greater than 800 nM and 10000 to 50000 nM.
On to `O=C1Nc2ccccc2C(c2ccccc2)=NC1Nc1nnc(-c2ccccc2)[nH]1` (stereo not drawn) [Example 86], for which the EC50 in data set [1] is greater than 800 nM. This compound also had a CC50 at 5 days in data set [2] greater than 50000 nM.
